Measured values as given in patent US10328114B2, “Lung injury repair compositions and methods” (University of Iowa Research Foundation, priority 2015, dated 2019).
“Also recorded” adds a separate entry of the source. *: point of attachment. Myristoyl = CCCCCCCCCCCCCC(=O)*

Experiments:
[1] = test system: active transforming growth factor beta (TGFβ); experiment: Active TGFβ ELISA in bleomycin ALI model; format: in vivo, mouse
Description: (§1) Animal protocols were approved by the Institutional Animal Care and Use Committee at the University of Iowa. C57BL/6 mice (Jackson Laboratories, Bar Harbor, Me.) were anesthetized followed by intratracheal instillation of: (A) Control (Ctrl): 1 μl of DMSO (Sigma, St. Louis, Mo.) plus 49 μl of PBS; (B) Bleomycin (Bleo): 1 μl of DMSO plus 49 μl of bleomycin (APP pharmaceuticals, LLC Schaumburg, Ill.) dissolved in PBS (4 U/kg); (C) Bleomycin/PKCζi (Bleo/PKCζi): 1 μg of PKCζi (Calbiochem EMD Biosciences, San Diego, Calif.) solubilized in 1 μl of DMSO plus 49 μl of bleomycin (4 U/Kg) dissolved in PBS (Calbiochem EMD Biosciences, San Diego, Calif.). After this treatment, all mice were instilled (50 μl) every 72 hours with 1 μl of DMSO plus 49 μl of PBS in the Ctrl and Bleo group or with 1 μg of PKCζi dissolved in 1 μl of DMSO plus 49 μl of PBS in the Bleo/PKCζi group for the duration of the experiment. Mice were treated for up to 6 weeks (FIG. 1A). All conditions had between 4 to 6 animals.
(§2) Mouse IL-1β and active transforming growth factor beta (TGFβ) were measured using an ELISA from R&D Biosystems (Minneapolis, Minn.).

PKCζ = biological target: T1, PKCζ (Mus musculus, UniProt Q02956); experiment: PKCζ activation (p-PKCζ) in lungs, bleomycin induced ALI mouse model, Western blot and immunofluorescence; format: in vivo; details: for activation of PKC-ζ in vivo: lungs harvested at 1, 3 and 6 weeks, Western blot and immunofluorescence
T1 construct: from tissue; host or cells: lungs of C57BL/6 mice (lung homogenates and frozen lung sections)
T1 sequence (Q02956 1-592): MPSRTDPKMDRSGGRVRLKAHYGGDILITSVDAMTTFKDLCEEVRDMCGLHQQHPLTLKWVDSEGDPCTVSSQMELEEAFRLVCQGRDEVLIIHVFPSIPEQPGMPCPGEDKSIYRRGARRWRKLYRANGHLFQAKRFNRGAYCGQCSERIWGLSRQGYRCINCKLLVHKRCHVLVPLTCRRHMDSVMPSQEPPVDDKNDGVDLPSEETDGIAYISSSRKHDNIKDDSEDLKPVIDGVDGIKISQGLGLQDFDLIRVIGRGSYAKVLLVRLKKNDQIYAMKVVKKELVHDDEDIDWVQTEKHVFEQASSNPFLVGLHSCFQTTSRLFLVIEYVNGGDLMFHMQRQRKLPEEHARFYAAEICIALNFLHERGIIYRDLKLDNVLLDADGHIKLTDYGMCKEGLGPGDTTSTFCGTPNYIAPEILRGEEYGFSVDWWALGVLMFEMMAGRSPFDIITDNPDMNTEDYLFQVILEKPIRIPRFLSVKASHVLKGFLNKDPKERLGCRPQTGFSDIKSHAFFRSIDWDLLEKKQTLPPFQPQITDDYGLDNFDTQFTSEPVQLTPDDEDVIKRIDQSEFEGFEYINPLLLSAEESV
Description: Mice were randomly divided into four groups: (i) control: PBS plus DMSO (1 μl/mouse) (ii) PKC-ζ pseudosubstrate inhibitor (PKC-ζ ps) (1 μg/mouse suspended in DMSO), a pharmacological inhibitor that competes for the pseudosubstrate domain which give specificity to several PKCζ isoforms (Hofmann, J. (1997). “The potential for isoenzyme-selective modulation of protein kinase C.” FASEB J 11(8): 649-669); (iii) bleomycin: bleomycin suspended in PBS (4 U/kg); and (iv) Bleomycin+PKCζi: bleomycin (4 U/kg) plus (1 μg/mouse) PKCζi. The above conditions were administered intratracheally (50 μL) to 6-8 wk-old mice after 2-5 min of anesthesia with 4% isoflurane via a precision Fortec vaporizer (Cyprane, Keighley, UK). Treatment with DMSO or PKCζi was administered every 72 hours and followed for up to 6 weeks. At 1, 3, and 6 weeks mice were euthanized and lungs harvested.
as §1
Western blot analysis was performed using Phospho-(Ser) PKCζ substrate rabbit monoclonal antibody (Cell Signaling, Beverly, Mass.), total PKCζ rabbit polyclonal antibody (Santa Cruz Biotechnology, Dallas, Tex.) and mature surfactant protein C (SPC) rabbit polyclonal antibody (Seven Hill Bioreagents, Cincinnati, Ohio).
(§3) After dissection, immunofluorescence labeling was performed on frozen mouse lung tissue sections with polyclonal anti p-PKCζ (Santa Cruz Biotechnology, Dallas, Tex.) or monoclonal β4 antibody (Clone 346-11a, BD Biosciences, San Jose, Calif.) (23). In addition, Terminal deoxynucleotidyltransferase dUTP nick end labeling (TUNEL) staining was performed on week 1 mouse lung tissue sections (24).

mouse DLEP α6β4^+ cells = experiment: Isolated DLEP α6β4+ cell colony assay (Example 3); format: cell-based; details: PKCζi 10 μM, 2 weeks, 20% BALF from week 1 bleomycin injured mice
Description: Isolated mouse DLEP α6β4^+ cells in the presence of 20% of BALF from week 1 mice injured with bleomycin were treated with PKCζi (10 μM) for 2 weeks. At week 3 the colonies derived from cre-GFP (lox-tm-TR/GFP) for surfactant protein C (SPC)/Tomato red with hydroxy-tamoxifen were exposed in order to trace the differentiation of β4^+ colonies into SPC^+ cells.

[2] = test system: bleomycin induced lung inflammation; experiment: Lung inflammation and cell death in bleomycin ALI model (BALF cell and neutrophil count, IL-1β, TUNEL); format: in vivo, mouse
Description: as §1, §3
Bronchoalveolar lavage was performed as previously described (18). Total cell count was examined by hemocytometer and the percent of neutrophils cells in the bronchoalveolar lavage fluid (BALF) by cytospin slides stained with Wright's-Giemsa. Total protein concentration was measured by Bradford assay (Bio-Rad, Hercules, Calif.).
as §2

[3] = test system: bleomycin induced ALI mouse model; experiment: Lung collagen deposition (hydroxyproline assay, Masson's trichrome) in bleomycin ALI model; format: in vivo; details: for lung fibrosis / lung injury resolution, biochemical and histological evidence: active TGF β, hydroxyproline, Masson staining
Description: as §1
The collagen content in the lung homogenates was determined with a hydroxyproline assay, as described previously (26). In addition, lung collagen deposition was examined in lung sections stained with Masson's trichrome.

[4] = week 3 post injury, listed as PKC-ζi

N-Myristoyl-Ser-Ile-Tyr-Arg-Arg-Gly-Ala-Arg-Arg-Trp-Arg-Lys-Leu-OH (Myristoyl-SIYRRGARRWRKL-OH; SMILES CCCCCCCCCCCCCC(=O)N[C@@H](CO)C(=O)N[C@H](C(=O)N[C@@H](Cc1ccc(O)cc1)C(=O)N[C@@H](CCCNC(=N)N)C(=O)N[C@@H](CCCNC(=N)N)C(=O)NCC(=O)N[C@@H](C)C(=O)N[C@@H](CCCNC(=N)N)C(=O)N[C@@H](CCCNC(=N)N)C(=O)N[C@@H](Cc1c[nH]c2ccccc12)C(=O)N[C@@H](CCCNC(=N)N)C(=O)N[C@@H](CCCCN)C(=O)N[C@@H](CC(C)C)C(=O)O)[C@@H](C)CC) [PKCζi]
active TGF β ([1]; week 3 post injury): no difference in active TGF β and hydroxyproline concentrations compared to bleomycin group; also recorded: does not prevent bleomycin induced TGF β activation | active TGF β [1, 4]: significantly elevated in both groups | active TGF β ([1]; week 6): prevents bleomycin induced active TGF β at week 6 | activation of PKC-ζ in vivo (PKCζ): prevents activation of PKCζ in vivo | activation of PKC-ζ in vivo (PKCζ; listed as PKC-ζi): prevented the activation of PKC-ζ | p-PKCζ / total PKCζ, Western blot densitometry of lung homogenates (PKCζ; week 1, PKCζi 1 μg intratracheal every 72 hours, vs Bleo group): prevented bleomycin induced increased ratio p-PKC/total PKCζ; also recorded: decreased p-PKCζ at week 1 compared to Bleo group | p-PKCζ immunostaining intensity in lung (PKCζ; week 3 and 6, vs bleomycin group): did not have any increase in p-PKCζ at week 3; also recorded: decreased intensity in the Bleo/PKCζi group compared to bleomycin group at week 3 and 6 | number of α6β4+ colonies (mouse DLEP α6β4^+ cells): increased the number of α6β4^+ colonies compared to control; also recorded: promotes proliferation DLEP α6β4^+ cells in vitro | bleomycin induced inflammatory response ([2]; Example 1): did not prevent increase in inflammatory response | apoptotic cells by TUNEL+ staining ([2]; week 1 lung sections): did not prevent the increase in apoptotic cells by TUNEL^+ staining | BALF cell count ([2]; week 1 post injury): neither prevented the increase in BALF cell and neutrophil count | BALF neutrophil concentration / count ([2]; week 1 post injury): neither prevented the increase in BALF cell and neutrophil count; also recorded: does not decrease bleomycin induced increase in the BALF neutrophil concentration | IL-1β in BALF ([2]; week 1 post injury): nor prevented the increase in IL-1β concentration; also recorded: does not decrease IL-1β release into BALF | collagen lung deposition by Masson's staining ([3]; FIG. 4C, printed as week 3): decreased collagen lung deposition by masson's staining at week 3 compared to bleomycin group | hydroxyproline content, PKCζi only during the first week ([3]; measured at week 6): increase hydroxyproline content similar to Bleomycin alone group at week 6 | histological lung collagen deposition ([3]; three weeks after bleomycin, Example 1): histological evidence of lung collagen deposition | lung hydroxyproline concentration ([3]; week 3 post injury): no difference in active TGF β and hydroxyproline concentrations compared to bleomycin group; also recorded: does not decrease hydroxyproline concentration | lung hydroxyproline concentration [3, 4]: high concentrations of hydroxyproline | lung fibrosis / lung injury resolution, biochemical and histological evidence ([3]; week 6): demonstrated lung injury resolution in the PKCζi treated group | lung fibrosis / lung injury resolution, biochemical and histological evidence ([3]; week 6, listed as PKC-ζi): total resolution of lung fibrosis in the PKC-ζi treated group | lung hydroxyproline concentration ([3]; week 6, continuous PKCζi treatment): decreased hydroxyproline concentration at week 6 compare to bleomycin group
